Assay results published in article PMC7463930, “Evidence Supporting an Antimicrobial Origin of Targeting Peptides to Endosymbiotic Organelles” (Cells, 2020).
No end group written: not given here.

Test system: Bacillus subtilis
Assay: Standard minimum inhibitory concentration broth microdilution assay
Format: cell-based
Method: Standard minimum inhibitory concentration broth microdilution assays in the presence of BSA/acetic acid were performed in triplicate as described in [65] using peptides chemically synthesized to ≥95% purity (Proteogenix). Dilution series are based on net peptide content, calculated by multiplying the dry weight by %N and by purity. %N is a measure of the peptide (rather than salt) fraction in the lyophilized product, while purity, provided by the manufacturer, is the fraction of the peptide with the desired sequence among all supplied peptides.
To determine the AMP-activity of TPs, we performed the symmetrical experiment. Several chemically synthesized TPs, chosen for their variable proximity to Class I HA-RAMPs (Figure S8B), were used to challenge Bacillus subtilis in a standard assay, using magainin II as a positive control (Figure 7). […] A high sensitivity was deemed a useful feature for an antimicrobial assay in this proof-of-principle experiment, since we expected TPs to have a lower activity than bona fide AMPs as they have been selected for targeting and not for impeding microbial growth over the last 1.5 By.
B. subtilis was challenged with serial dilutions of synthetic peptides (See Table S7 for sequences): the Rattus norvegicus peptide hormone cholecystokinin-22, the C. reinhardtii tSP of lumenal 16.5 kDa protein, the HA-RAMP magainin II, Neurospora crassa mTP of ATP synthase F1β subunit and C. reinhardtii cTPs from RBCA and plastocyanin (PCY1) or mTPs from cytochrome c oxidase 12 kDa subunit (COX13) and Serine HydroxylMethyl Transferase 1 (SHMT1). (A) One dilution plate out of three performed replicates is shown to illustrate how the data was obtained. Transparent wells illustrate absence of growth. Red arrows point to the minimal peptide inhibiting concentration. (B) Minimum inhibitory concentrations (MIC) for each of the three replicate plates are reported in a table. TEXT PRINTED IN THE PICTURE: (B) cck-22: MIC (μg/ml) rep 1: >1000; MIC (μg/ml) rep 2: >1000; MIC (μg/ml) rep 3: >1000 | (B) TL16-tSP: MIC (μg/ml) rep 1: >1000; MIC (μg/ml) rep 2: >1000; MIC (μg/ml) rep 3: >1000 | (B) Magainin II: MIC (μg/ml) rep 1: 4; MIC (μg/ml) rep 2: 4; MIC (μg/ml) rep 3: 4 | (B) pF1β-mTP: MIC (μg/ml) rep 1: 8; MIC (μg/ml) rep 2: 4; MIC (μg/ml) rep 3: 8 | (B) RBCA-cTP: MIC (μg/ml) rep 1: 63; MIC (μg/ml) rep 2: 63; MIC (μg/ml) rep 3: 63 | (B) COX13-mTP: MIC (μg/ml) rep 1: 250; MIC (μg/ml) rep 2: 250; MIC (μg/ml) rep 3: 250 | (B) PCY1-cTP: MIC (μg/ml) rep 1: 1000; MIC (μg/ml) rep 2: 1000; MIC (μg/ml) rep 3: 1000 | (B) SHMT1-mTP: MIC (μg/ml) rep 1: 31; MIC (μg/ml) rep 2: 31; MIC (μg/ml) rep 3: 31

cholecystokinin-22 (NLQGLDPSHRISDRDYMGWMDF; ends and bridges not checked; UniProt P01355 82-103, looked up) [cck-22, Rattus norvegicus small peptide hormone cholecystokinin-22, used as negative control]
inhibited growth (in words) (B. subtilis challenged with chemically synthesized peptides, negative controls): neither
MIC (μg/ml) rep 1 (B. subtilis, broth microdilution in the presence of BSA/acetic acid, serial dilutions based on net peptide content, peptides synthesized to ≥95% purity, replicate plate 1 of 3): > 1000 µg/mL
MIC (μg/ml) rep 2 (B. subtilis, broth microdilution in the presence of BSA/acetic acid, serial dilutions based on net peptide content, peptides synthesized to ≥95% purity, replicate plate 2 of 3): > 1000 µg/mL
MIC (μg/ml) rep 3 (B. subtilis, broth microdilution in the presence of BSA/acetic acid, serial dilutions based on net peptide content, peptides synthesized to ≥95% purity, replicate plate 3 of 3): > 1000 µg/mL
